Values after ≈ are worked out from the molar mass of the structure shown. Where a name gives a salt, the structure may show the parent alone. Read-outs that look alike come from different tables or passages of the source.
How the values were obtained:
[1] = Equilibrium solubility in HBSS* buffer (HPLC-UV); type: physicochemical; details: HEPES buffered HBSS (HBSS*) buffer, pH 7.4, 37°C, mean ± SD, N = 3
Procedure: The mobile phases (MP) consisted of ultra-pure water containing 0.1% trifluoroacetic acid (MP A) and acetonitrile containing 0.1% trifluoroacetic acid (MP B). A reversed-phase column (Nova-Pak® C18, 4 μm, 3.9 × 150 mm, Waters, Milford, MA, United States) was applied and maintained at 22°C. The flow was constant at 0.6 mL ⋅ min^−1 with an isocratic elution of 40% MP A and 60% MP B for 53B, 55B, and 57B, an isocratic elution of 30% MP A and 70% MP B with a constant flow of 0.8 mL ⋅ min^−1 for MMTC, and an isocratic elution of 60% MP A and 40% MP B with a constant flow of 0.6 mL ⋅ min^−1 for […]. Samples of 20 μL, maintained at 25°C, were injected and all five compounds were measured at 270 nm. […] The calibration curves ranged from 5 to 30 µM for MMTC and 53B and from 7.5 to 30 µM for 54F, 55B, and 57B. Linear regression of peak height as a function of concentration was analyzed using GraphPad Prism 9.4.1.
The 5 mL vials were then left on a rotator covered in aluminum foil at 37°C. After 72 h rotation, the solutions were equally distributed into three 1.5 mL microtubes, to do triplicate measurements, and centrifuged at 10,000 g at room temperature for 10 min. The supernatant was removed and for 53B, 54F, and 57B the supernatant was diluted 1:2 with their respective mobile phases. For MMTC and 55B, the supernatant was diluted 2:1 with their respective mobile phase. The diluted samples were analyzed by HPLC-UV as described in Section 2.4.
For the quantification of MMTC, 53B, 54F, 55B, and 57B a linear regression was made of each of the calibration curves, where the known concentrations were plotted as a function of the peak height.

SNAT2 = target: T1, SNAT2 (Homo sapiens, UniProt Q96QD8); assay: 3H-Gly uptake in hyperosmotically treated PC-3 cells; type: cell-based; details: for Inhibition of 3H-Gly uptake (overall finding, in words): concentration not given, 54F at the highest soluble concentration
T1 construct: endogenous in cells; host or cells: PC-3 cells (ECACC 90,112,714), 24 h in hyperosmotic medium
T1 sequence (Q96QD8 1-506): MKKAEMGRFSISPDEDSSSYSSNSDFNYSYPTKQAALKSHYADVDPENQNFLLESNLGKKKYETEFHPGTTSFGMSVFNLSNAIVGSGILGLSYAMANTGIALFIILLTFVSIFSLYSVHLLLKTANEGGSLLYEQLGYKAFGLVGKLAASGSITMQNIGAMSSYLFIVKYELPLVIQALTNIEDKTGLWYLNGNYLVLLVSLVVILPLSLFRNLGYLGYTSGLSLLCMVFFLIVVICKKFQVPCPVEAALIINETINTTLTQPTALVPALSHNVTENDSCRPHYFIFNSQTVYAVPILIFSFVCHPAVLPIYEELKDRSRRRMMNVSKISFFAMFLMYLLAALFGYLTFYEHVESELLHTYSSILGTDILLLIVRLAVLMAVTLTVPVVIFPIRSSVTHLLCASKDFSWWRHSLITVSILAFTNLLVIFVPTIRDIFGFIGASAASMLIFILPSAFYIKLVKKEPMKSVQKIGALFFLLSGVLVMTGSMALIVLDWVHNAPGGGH
Procedure: PC-3 cells (ECACC 90,112,714) were obtained from the European Collection of Authenticated Cell Cultures (ECACC; UK Health Security Agency, Salisbury, United Kingdom) and were received in passage 31. […] The cells were kept incubated at 37°C in an atmosphere of 5% CO2 and 94%–97% relative humidity and the culture medium was changed every 2–3 days. For hyperosmotic stimulation, PC-3 cells were incubated in hyperosmotic media for 24 h before the uptake experiment. The hyperosmotic media was made by supplementing normal isoosmotic culture medium with 200 mM raffinose to reach an osmolality of approximately 500 mOsm ⋅ kg^−1. For uptake studies, the PC-3 cells were seeded in 24-well plates (area of 1.9 cm^2) at a density of 1.5 ⋅ 10^5 cells ⋅ cm^−2 2 days before the experiment. Experiments were performed using PC-3 cells in passages 2–15 after thawing.
Hyperosmotically treated PC-3 cells were used to study the uptake of radiolabeled ^3H-Gly. Solutions were prepared using Hanks Balanced Salt Solution (HBSS), which consisted of the following (mM): CaCl2, 1.26; MgCl2, 0.49; MgSO4, 0.41; KCl, 5.33; KH2PO4, 0.44; NaCl, 138; Na2HPO4, 0.34; D-glucose, 5.56; NaHCO3, 4.17. HBSS was supplemented with 10 mM HEPES and adjusted to pH 7.4 ± 0.01 (HBSS*) with […]. Donor solutions contained 0.5 μCi/mL of ^3H-glycine (11.1 nM). MMTC was also investigated at a substrate concentration of 100 µM Gly, which was achieved by the addition of unlabeled Gly to donor solutions containing 0.5 μCi/mL of ^3H-Gly (11.1 nM). […] Before starting the uptake experiment the media was aspirated, and the cells were preincubated in HBSS* for 15 min at 37°C and 220 rpm. To initiate the uptake study, the buffer was removed and 300 µL of prewarmed (37°C) donor solution was added to the cells and incubated at 37°C. During incubation, the cells were circularly rotated at 220 rpm using a Talboys incubating microplate shaker (Troemner, Thorofare, NJ, United States). After 5 min, the uptake experiment was terminated by removing the buffer solutions by vacuum suction, and the cells were washed thrice with 500 µL ice-cold HBSS. […] The cells were then detached by applying 200 µL of 0.1% Triton-X 100 for at least 25 min and cells were then transferred to scintillation vials along with 2 mL of Ultima Gold scintillation fluid. The vials were vortexed before being analyzed by a liquid scintillation counter, which was a TriCarb 4910 TR from PerkinElmer (Waltham, MA, United States).
^3H-Gly uptake values were normalized to the control uptake of each experiment, but without subtracting any background uptake.
Statistical differences were tested in GraphPad Prism 9.4.1 using one-way ANOVA followed by Dunnett’s multiple comparison test. The significance level used was p < 0.05 (*). Data are represented as means ± SEM from independent cell passages (n) unless otherwise stated.

PC-3 cells = test system: PC-3 cells; parameters: method as in Nielsen et al., 2022; details: ref Nielsen et al., 2022, read-out: Km of uptake; cited from earlier work
[2] = Kinetic solubility of MMTC diluted from DMSO stock into HBSS*; type: physicochemical; details: HBSS* buffer, 37°C
Procedure: Quantification of compounds was performed using a Waters 2695 HPLC system (Waters Corporation, MA, United States) connected to a Waters 2487 Dual λ Absorbance Detector (Waters Corporation, MA, United States). The mobile phases (MP) consisted of ultra-pure water containing 0.1% trifluoroacetic acid (MP A) and acetonitrile containing 0.1% trifluoroacetic acid (MP B). A reversed-phase column (Nova-Pak® C18, 4 μm, 3.9 × 150 mm, Waters, Milford, MA, United States) was applied and maintained at 22°C. The flow was constant at 0.6 mL ⋅ min^−1 with an isocratic elution of 40% MP A and 60% MP B for 53B, 55B, and 57B, an isocratic elution of 30% MP A and 70% MP B with a constant flow of 0.8 mL ⋅ min^−1 for MMTC, and an isocratic elution of 60% MP A and 40% MP B with a constant flow of 0.6 mL ⋅ min^−1 for […]. Samples of 20 μL, maintained at 25°C, were injected and all five compounds were measured at 270 nm. MMTC, 53B, 54F, 55B, and 57B had retention times of 4.00, 2.47, 5.14, 2.92, and 4.00 min, respectively. […] Linear regression of peak height as a function of concentration was analyzed using GraphPad Prism 9.4.1. […]
The 5 mL vials were then left on a rotator covered in aluminum foil at 37°C. […] The diluted samples were analyzed by HPLC-UV as described in Section 2.4. […]

ASCT2 = test system: ASCT2; parameters: method as in Schulte et al., 2016; Schulte et al., 2018; details: HEK293 cells, ref Schulte et al., 2016, 2018; cited from earlier work
[3] = at soluble conditions / within soluble concentration range

Question: For `Cc1ccccc1Nc1c(-c2ccc(N3CCOCC3)cc2)nc2cnccn12` [53B], which solubility thermodynamic ([1]; aqueous buffer) is on record?
Answer: 24.9 ± 0.8 µM (≈ 9.6 µg/mL)

Question: And the “Inhibition of 3H-Gly uptake” value (SNAT2; [3])?
Answer: no inhibition

Question: Which results are given for `CC(C)c1ccc(S(=O)(=O)Nc2ccc3nc(S(C)(=O)=O)sc3c2)cc1` [54F]?
Answer: solubility thermodynamic ([1]; aqueous buffer): 56.1 ± 0.5 µM (≈ 23 µg/mL); Inhibition of 3H-Gly uptake compared to control (SNAT2; 50 µM compound, 11.1 nM 3H-Gly, 5 min, 37°C, 1% DMSO): approximately 20%; Inhibition of 3H-Gly uptake (overall finding, in words) (SNAT2): significant, but small, inhibition

Question: For `COC(=O)c1ccccc1NC(=O)Nc1c(-c2ccncc2)[nH]c2ccc(Cl)cc12` [55B], which solubility thermodynamic ([1]; aqueous buffer) is on record?
Answer: 13.2 ± 1.6 µM (≈ 5.56 µg/mL)

Question: What about the solubility thermodynamic [1] of the same compound?
Answer: 13.3 µM (≈ 5.6 µg/mL)

Question: And the “Inhibition of 3H-Gly uptake” value (SNAT2; [3])?
Answer: no inhibition

Question: Which solubility thermodynamic ([1]; aqueous buffer) does the source give for `Cc1nc(-n2nc(C)c(Cc3ccc(Cl)cc3)c2C)sc1C(=O)N1CCN(C)CC1` [57B] here?
Answer: 27.5 ± 1 µM (≈ 12.2 µg/mL)

Question: And the “Inhibition of 3H-Gly uptake” value (SNAT2; [3])?
Answer: no inhibition

Question: With `NCC(=O)O` [Gly, glycine] as the compound, how does the Km (PC-3 cells) read?
Answer: 750 ± 160 µM

Question: For `N=C(N)NCCC[C@H](N)C(=O)O` [L-Arg, L-arginine hydrochloride], which “Effect on 3H-Gly uptake” value (SNAT2; 20 mM, 11.1 nM 3H-Gly, 5 min) is on record?
Answer: did not affect the uptake significantly

Question: Which results are given for `Cc1ccc(S(=O)(=O)N(C)c2ccsc2C(=O)NCc2ccccc2C(F)(F)F)cc1` [MMTC, 3-(N-methyl (4-methylphenyl)sulfonamido)-N-(2-trifluoromethylbenzyl)thiophene-2-carboxamide]?
Answer: solubility thermodynamic ([1]; aqueous buffer): < 1.8 µM; Inhibition of Gly uptake (SNAT2; 1 µM MMTC, substrate concentration 100 µM Gly, Supplementary Figure S1, n = 1): does not inhibit; Inhibition of SNAT2-mediated 3H-Gly uptake (SNAT2; 1 µM compound, 11.1 nM 3H-Gly, 5 min, 37°C, 1% DMSO): no inhibition; Inhibition of SNAT2-mediated 3H-Gly uptake (SNAT2; 5 µM compound, 11.1 nM 3H-Gly, 5 min, 37°C, 1% DMSO): no inhibition; Inhibition of 3H-Gly uptake (overall finding, in words) (SNAT2): did not inhibit; solubility kinetic ([2]; aqueous buffer, kinetic from dmso stock, within 15 min, remained stable for at least 45 min, read-out: MMTC concentration after dilution of DMSO stock to 10 µM in HBSS*): ~2.5 µM (≈ 1.17 µg/mL); solubility kinetic ([2]; pH 7.4, HBSS*, during the course of the uptake study, read-out: Kinetic solubility): 2.5 to 10 µM (≈ 1.17 to 4.69 µg/mL)

Question: Which Km (PC-3 cells) does the source give for `O=C(O)[C@@H]1CCCN1` [Pro] here?
Answer: 780 ± 100 µM

Question: Which IC50 (ASCT2) does the source give for `Cc1cccc(COc2ccccc2CN(CC[C@H](N)C(=O)O)Cc2ccccc2OCc2cccc(C)c2)c1` [V-9302] here?
Answer: 7 to 10 µM

Question: With `C[N+](C)(C)CC(=O)O` [betaine] as the compound, how does the “Inhibition of Gly uptake (in words)” value (SNAT2; 50 mM betaine, 20 mM Gln, Figure 1) read?
Answer: almost completely inhibits

Question: What about the “Inhibition of 3H-Gly uptake” value (SNAT2; 50 mM, 11.1 nM 3H-Gly, 5 min) of the same compound?
Answer: around 86%

Reference: paper PMC10794626, “Investigations of potential non-amino acid SNAT2 inhibitors” (Frontiers in Pharmacology, 2024)
